Reference: PMC3820577, “A High-Throughput Screen against Pantothenate Synthetase (PanC) Identifies 3-Biphenyl-4-Cyanopyrrole-2-Carboxylic Acids as a New Class of Inhibitor with Activity against Mycobacterium tuberculosis” (PLoS ONE, 2013)
Values after ≈ are worked out from the molar mass of the structure shown. Structures can show the parent of a compound that is named as a salt. Where two headings read alike, the source gives them in different places.

How the values were obtained:
[1] = target: T1, PanCMTB (Mycobacterium tuberculosis, UniProt P9WIL5); assay: High-throughput single-timepoint fluorescence assay for PanCMTB activity (HTS and CRC); format: biochemical; details: for inhibition of the reaction: control inhibitor
T1 construct: 6X-Histidine (N); made in house; host or cells: E. coli BL21(ΔE3), vector pET28b+
Experimental: The activity of recombinant PanCMTB was measured, as previously described. Briefly, compounds or carrier DMSO alone were incubated with PanCMTB, the coupling enzymes, and their reagents for five minutes. The reaction was then initiated by addition of the PanCMTB substrates, pantoate and β-alanine. The reaction was conducted in wells of a black clear-bottomed microplate containing a final volume of 40 µL per well. The final concentrations were 0.4 mM NADH, 10 mM ATP, 1 mM pantoate, 5 mM β-alanine, 1 mM phosphoenol pyruvate (PEP-K), 10 mM MgCl2, 2% DMSO, 1 µg/mL of PanC, and 18 U/mL each of myokinase, pyruvate kinase and lactate dehydrogenase in 100 mM HEPES pH 7.8. The plate was immediately transferred to a SpectraMax micro-plate reader and the rate of NADH depletion was monitored by measuring the absorbance at 340 nm every 20 s for a total of 20 min.
The kinetic NADH depletion assay was initiated as described above. After 30 minutes 10 µL of solution containing fluorescent reagents was added to each well. The final 50 µL reaction contained 12.5 U/mL of diaphorase and 5 mM resazurin. After thorough mixing, the plate was transferred to a micro-plate reader and the level of resulting NADH-dependent resorufin determined by measuring fluorescence (excitation and emission filters set at […], respectively).
HTS library sets of individual compounds were plated at 1 mM - diluted first into HEPES and finally into the assay for a final assay concentration (FAC) of 20 µM. For concentration response curves (CRCs), the compounds were plated in single wells at 10 mM and diluted 3-fold across 9 adjacent wells in a row. Serial dilutions were made in 100% DMSO to ensure accurate concentrations of compound across the series. This entire plate was then treated in the same format as the HTS library plates, for FACs ranging from 200 µM- 0.01 µM in 2% DMSO (details provided in Text S1 and shown in Figure S3).

[2] = target: T1, PanCMTB; assay: Low-throughput kinetic NADH depletion assay for PanCMTB, mode of inhibition; format: biochemical; details: for mode of inhibition / Ki: with respect to pantoate; for Ki: read-out: Ki inhibition constant; for α (parameter of mixed inhibition equation): with respect to the substrate pantoate
[3] = system: M. tuberculosis H37Rv (RvS); assay: microbe, parasite or virus in culture; format: cell-based, Mycobacterium tuberculosis
[4] = system: PanC-TetONM strain; assay: microbe, parasite or virus in culture; format: cell-based, Mycobacterium tuberculosis
[5] = system: Vero cells; format: cell-based; details: African green monkey, 48 h
Experimental: Cytotoxicity was measured against the African green monkey adult kidney cell line (Vero). Vero cells were plated at 25,000 cells/mL in black 96-well assay plates pre-populated with compound dilutions and controls. Cells were incubated in a humidified 5% CO2 environment at 37°C for 48 h; intracellular ATP levels were measured using CellTiter-Glo®Reagent (Promega, Madison, WI). Luminescence was measured using a Victor 2 plate reader and percentage inhibition of growth calculated. Results were expressed as toxicity concentration (TC50) = concentration of compound required to inhibit growth by 50%.

[6] = system: HeLa cells; format: cell-based; details: human
[7] = target: T1, PanCMTB; parameters: method as in PMID 17175524; details: read-out: inhibition constant; cited from earlier work
[8] = Mycobacterium tuberculosis, H37RV, 144 h
[9] = Mycobacterium tuberculosis, 144 h

T1 sequence (P9WIL5 whole entry, looked up): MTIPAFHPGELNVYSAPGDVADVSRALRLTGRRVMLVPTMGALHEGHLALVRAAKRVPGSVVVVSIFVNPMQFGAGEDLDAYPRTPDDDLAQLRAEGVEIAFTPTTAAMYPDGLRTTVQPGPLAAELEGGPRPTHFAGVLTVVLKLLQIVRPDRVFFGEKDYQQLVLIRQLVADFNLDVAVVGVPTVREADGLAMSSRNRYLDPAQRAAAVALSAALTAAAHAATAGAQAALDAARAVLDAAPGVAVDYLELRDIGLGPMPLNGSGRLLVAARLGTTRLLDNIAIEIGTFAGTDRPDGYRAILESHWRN

In the case of `CCc1c(C#N)c(-c2ccc(-c3ccc(C#N)cc3)cc2)c(C(=O)O)n1C` [compound 2], the EC50 [1] is reported as 4000 nM, the mode of inhibition [2] is reported as “competitive inhibition” and the Ki [2] is reported as 297 nM. For the same compound, the “α (parameter of mixed inhibition equation)” value [2] was 78, the MIC50 [3] was 54 µM (≈ 19.2 µg/mL) and the MIC50 [3, 8] was 54 µM (≈ 19.2 µg/mL). The MIC50 [4] was 24 µM (≈ 8.53 µg/mL), the MIC50 ([4]; Mycobacterium tuberculosis) was 53 µM (≈ 18.8 µg/mL) and the MIC50 [4, 9] was 24 µM (≈ 8.53 µg/mL). The TC50 [5] was 96000 nM and the “average TC50” value [6] was 111000 nM.

For `CCN(CC)CCOC(=O)C(Cc1cccc2ccccc12)CC1CCCO1` (stereo not drawn) [nafronyl oxalate, reference compound], the “inhibition of the reaction” value ([1]; higher of two control concentrations) is given as about 80%, the “inhibition of the reaction” value ([1]; lower of two control concentrations) is given as about 50% and the Ki [7] is given as about 75000 nM.

With `CCSc1c(C#N)c(-c2ccc(-c3ccccc3)cc2)c(C(=O)O)n1C` [compound 1] the EC50 [1] was 1800 nM, the mode of inhibition [2] was “competitive inhibition” and the Ki [2] was 174 nM. The “α (parameter of mixed inhibition equation)” value [2] was 128, the MIC50 [3] was 115 µM (≈ 41.7 µg/mL) and the MIC50 [3, 8] was 115 µM (≈ 41.7 µg/mL). It also gave an MIC50 ([4]; Mycobacterium tuberculosis) of 111 µM (≈ 40.2 µg/mL), an MIC50 [4, 9] of 69 µM (≈ 25 µg/mL) and a TC50 [5] of 70000 nM. The “average TC50” value [6] was 179000 nM.
